In one experiment the test system is Aβ1-42. Put plainly: Measurement of Aβ1-42 in culture medium of 7W WT APP751 CHO cells by ELISA. The settings on record: for activity at 5 µM: Cricetulus griseus, Table 1, 5 μM test compound, CHO cells stably transfected with human APP751, culture medium, ELISA, control DMSO, 0 = no detectable amount, read-out: Aβ1-42 (% of control); for Aβ1-42 (% of control): CHO cells that overexpress APP751, zero = below the detection limit of the assay. In kind it is cell-based, Chinese hamster. As for the experimental part: (§1) Chinese hamster ovary (CHO) cells, stably transfected with human APP751 (7W WT APP751 CHO cells) were used. See, e.g., Koo and Squazzo, J. Biol. Chem., 269(26): 17386-17389, 1994. The cells were maintained in DMEM medium supplemented with 10% fetal bovine serum and 1× mixture of penicillin/streptomycin/fungizone/glutamine mixture (Cambrex, Md.) geneticin as selecting agent in 75 cm^2 cell culture flasks. The 7W WT APP751 CHO cells were plated in 96-well cell culture plates in quadruplicate, containing 200 microliters of culture medium, for 18 hours at 37° C. and 5% CO2. All test compounds were placed in dimethyl sulfoxide (DMSO) before being added to the cultured confluent 7W WT APP751 CHO cells to a concentration of the test compound of 5 μM. The culture medium was collected and diluted before being assayed by ELISAs for Aβ1-40 at 10-fold dilution and Aβ1-42 at 2-fold dilution, respectively. Concentrations of Aβ1-40 and Aβ1-42, expressed in pg/ml, were determined using commercially available ELISAs (Biosource, Calif.) in a colorimetric assay using labeled antibodies detected spectrophotometrically. For compounds with an identification beginning “RI”, the compounds were tested at a concentration of 10 μM for 24 hours. Control cells were treated with DMSO containing no compound. The percentage reduction in levels of Aβ1-40 and Aβ1-42 as compared to control cells not exposed to the test compounds are reported for the compounds in Tables 1, 2, and 3, supra. An entry of “0” indicates no detectable amount of Aβ1-40 or Aβ1-42 according to the assay conditions. The data in Tables 1, 2, and 3 may be rounded to the nearest 0.1%.
For orientation: In an ELISA, binding on a coated surface is turned into a signal by an enzyme label.

Another experiment has as its system Aβ1-40. Kind of experiment: Measurement of Aβ1-40 in culture medium of 7W WT APP751 CHO cells by ELISA. Format: cell-based, Chinese hamster. Conditions: for activity at 5 µM: Cricetulus griseus, Table 1, 5 μM test compound, CHO cells stably transfected with human APP751, culture medium, ELISA, control DMSO, 0 = no detectable amount; for Aβ1-40 (% of control): CHO cells that overexpress APP751, zero = below the detection limit of the assay. On the procedure: as §1

Take `COc1ccc(C2C(C(=O)OCCOc3ccccc3)=C(C)NC3=C2C(=O)CC(C)(C)C3)cc1O` (stereo not shown) [ST052422, 2-phenoxyethyl 4-(3-hydroxy-4-methoxyphenyl)-2,7,7-trimethyl-5-oxo-1,4,6,7,8-pentahydroquinoline-3-carboxylate]: the activity at 5 µM was 44.8% with Aβ1-42 and 38.3% with Aβ1-40.
As to `Cc1ccc(/C=c2/sc3n(c2=O)C(N)=C(C#N)C(c2ccc(C)cc2)C=3C#N)cc1` (stereo not shown) [ST215709, 5-amino-7-(4-methylphenyl)-2-[(4-methylphenyl)methylene]-3-oxo-4,7-dihydro-1,3-thiazolidino[3,2-a]pyridine-6,8-dicarbonitrile], the “Aβ1-42 (% of control)” value in the experiment on Aβ1-42 is 78.43 % of control. Moreover, in the experiment on Aβ1-40, the “Aβ1-40 (% of control)” value is recorded as 55.91 % of control.
On the same counts, the results for `CCOC(=O)C1=C(C)N(C)C(C)=C(C(=O)OCC)C1c1ccccn1` [ST052366, ethyl 5-(ethoxycarbonyl)-1,2,6-trimethyl-4-(2-pyridyl)-1,4-dihydropyridine-3-carboxylate] are 89.76 % of control and 56.21 % of control.
Take `COc1ccccc1C1C(C(=O)OC(C)C)=C(C)NC2=C1C(=O)CC(c1ccccc1)C2` (stereo not shown) [ST017220, methylethyl 4-(2-methoxyphenyl)-2-methyl-5-oxo-7-phenyl-1,4,6,7,8-pentahydroquinoline-3-carboxylate]: the activity at 5 µM came out at 99.6% with Aβ1-42 and 60.9% in the experiment on Aβ1-40.
On the same counts, the results for `COC(=O)C1=C(C)NC2=C(C(=O)CC(C)(C)C2)C1c1cccc(Cl)c1Cl` (stereo not shown) [ST013151, methyl 4-(2,3-dichlorophenyl)-2,7,7-trimethyl-5-oxo-1,4,6,7,8-pentahydroquinoline-3-carboxylate] are 61.6% and 52.1%.
`CCc1cccc(NC(=O)CSC2=C(C#N)C(c3ccc(C)s3)C(C(=O)Nc3ccccc3)=C(C)N2)c1` (stereo not shown) [RI_78]: the “Aβ1-42 (% of control)” value in the experiment on Aβ1-42 is given as 88.1 % of control. Further, in the experiment on Aβ1-40, the “Aβ1-40 (% of control)” value is 77.32 % of control.
For `COc1ccc(COC(=O)C2=C(C)NC3=C(C(=O)CCC3)C2c2cccc(C)c2)cc1` (stereo not shown) [ST052354, (4-methoxyphenyl)methyl 2-methyl-4-(3-methylphenyl)-5-oxo-1,4,6,7,8-pentahydroquinoline-3-carboxylate], the values for the activity at 5 µM in the experiment with Aβ1-42 and with Aβ1-40 were 57.2% and 95.1%, respectively.
For `CC1=C(C(=O)Nc2ccccc2)C(c2cccs2)C(C#N)=C(SCC(=O)NCc2ccc(Br)cc2)N1` (stereo not shown) [RI_20], the “Aβ1-42 (% of control)” value in the experiment with Aβ1-42 is on record as 41.9 % of control. For the same molecule, the “Aβ1-40 (% of control)” value in the experiment on Aβ1-40 is listed as 45.6 % of control.
In the case of `COc1ccc(COC(=O)C2=C(C)NC3=C(C(=O)CCC3)C2c2ccc(Cl)cc2)cc1` (stereo not shown) [ST018648, (4-methoxyphenyl)methyl 4-(4-chlorophenyl)-2-methyl-5-oxo-1,4,6,7,8-pentahydroquinoline-3-carboxylate], the activity at 5 µM worked out at 11% with Aβ1-42 and 7.49% with Aβ1-40.
On the same counts, the results for `CCC(C)OC(=O)C1=C(C)NC2=C(C(=O)CC(c3ccc(Cl)cc3)C2)C1c1ccc(Cl)cc1` (stereo not shown) [ST017089, methylpropyl 4,7-bis(4-chlorophenyl)-2-methyl-5-oxo-1,4,6,7,8-pentahydroquinoline-3-carboxylate] are 82.5% and 26.9%.
Turning to `CCOC(=O)C1=c2s/c(=C/c3ccccc3C(F)(F)F)c(=O)n2C(N)=C(C#N)C1c1ccccc1C(F)(F)F` (stereo not shown) [ST025089, ethyl 5-amino-6-cyano-3-oxo-7-[2-(trifluoromethyl)phenyl]-2-{[2-(trifluoromethyl)phenyl]methylene}-4,7-dihydro-1,3-thiazolidino[3,2-a]pyridine-8-carboxylate], the “Aβ1-42 (% of control)” value with Aβ1-42 is 33.69 % of control. Moreover, the “Aβ1-40 (% of control)” value in the experiment on Aβ1-40 was 48.71 % of control.
For `CC1=C(C(=O)OCc2ccccc2)C(c2ccccc2Br)C2=C(CCCC2=O)N1` (stereo not shown) [ST052408, phenylmethyl 4-(2-bromophenyl)-2-methyl-5-oxo-1,4,6,7,8-pentahydroquinoline-3-carboxylate], the activity at 5 µM worked out at 63.4% in the experiment with Aβ1-42 and 63% in the experiment on Aβ1-40.
The like results for `COC(=O)C1=C(C)NC2=C(C(=O)CC(c3ccc(Cl)cc3)C2)C1c1ccc(OCc2ccccc2)cc1` (stereo not shown) [ST016953, methyl 7-(4-chlorophenyl)-2-methyl-5-oxo-4-[4-(phenylmethoxy)phenyl]-1,4,6,7,8-pentahydroquinoline-3-carboxylate] were, in that order, 69.7% and 43.9%.
The like results for `CCCOC(=O)C1=C(C)NC2=C(C(=O)CCC2)C1c1ccccc1OC(C)C` (stereo not shown) [ST013322, propyl 2-methyl-4-[2-(methylethoxy)phenyl]-5-oxo-1,4,6,7,8-pentahydroquinoline-3-carboxylate] were, in that order, 99.7% and 57.6%.
On to `CC1=C(C(=O)Nc2ccccc2)C(c2c(Cl)cccc2Cl)C(C(=O)Nc2ccccc2)=C(C)N1` [ST217080, [4-(2,6-dichlorophenyl)-2,6-dimethyl-5-(N-phenylcarbamoyl)(3-1,4-dihydropyridyl)]-N-benzamide], for which, in the experiment on Aβ1-42, the “Aβ1-42 (% of control)” value is reported as 0 % of control. Also, in the experiment with Aβ1-40, the “Aβ1-40 (% of control)” value is recorded as 65.54 % of control.
On the same counts, the results for `N#CC1=C(N)NC(SCC(N)=O)=C(C#N)C1c1ccc(Cl)cc1` (stereo not shown) [RI_3] are 51.2 % of control and 97.4 % of control.
In the case of `CC1=C(C(=O)OC2CCCCC2)C(c2cccc3ccccc23)C2=C(CCCC2=O)N1` (stereo not shown) [ST013258, cyclohexyl 2-methyl-4-naphthyl-5-oxo-1,4,6,7,8-pentahydroquinoline-3-carboxylate], the values for the activity at 5 µM in the experiment with Aβ1-42 and in the experiment with Aβ1-40 were 47% and 0%, respectively.
As to `CCOC(=O)C1=C(N)n2c(s/c(=C\c3ccc(C(C)C)cc3)c2=O)=C(S(=O)(=O)c2ccccc2)C1c1ccc(C(C)C)cc1` (stereo not shown) [ST011326], the “Aβ1-42 (% of control)” value in the experiment on Aβ1-42 was 72.95 % of control. In addition, the “Aβ1-40 (% of control)” value with Aβ1-40 is 54.94 % of control.
Take `CC1=C(C(=O)OC2CCCC2)C(c2ccc(C)s2)C2=C(CCCC2=O)N1` (stereo not shown) [ST052262, cyclopentyl 2-methyl-4-(5-methyl(2-thienyl))-5-oxo-1,4,6,7,8-pentahydroquinoline-3-carboxylate]: the results for the activity at 5 µM in the experiment on Aβ1-42 and in the experiment with Aβ1-40 were 19.7% and 13.2%, respectively.
The like results for `CCCOC(=O)C1=C(C)NC2=C(C(=O)CCC2)C1c1cc(Br)ccc1OC` (stereo not shown) [ST052364, propyl 4-(5-bromo-2-methoxyphenyl)-2-methyl-5-oxo-1,4,6,7,8-pentahydroquinoline-3-carboxylate] were, in that order, 13.5% and 27%.
As to `CC1=C(C(=O)OCCc2ccccc2)C(c2ccc(C(F)(F)F)cc2)C2=C(CCCC2=O)N1` (stereo not shown) [ST052320, 2-phenylethyl 2-methyl-5-oxo-4-[4-(trifluoromethyl)phenyl]-1,4,6,7,8-pentahydroquinoline-3-carboxylate], the activity at 5 µM with Aβ1-42 turned out to be 0%; in the experiment on Aβ1-40, 9.44%.
In the case of `COC(=O)C1=C(C)NC2=C(C(=O)CC(c3ccccc3)C2)C1c1cc(OC)ccc1OC` (stereo not shown) [ST013117, methyl 4-(2,5-dimethoxyphenyl)-2-methyl-5-oxo-7-phenyl-1,4,6,7,8-pentahydroquinoline-3-carboxylate], the results for the activity at 5 µM in the experiment on Aβ1-42 and in the experiment on Aβ1-40 were 46.1% and 22.4%, respectively.
`COc1ccccc1NC(=O)CSC1=C(C#N)C(c2ccsc2)C(C(=O)Nc2ccccc2)=C(C)N1` (stereo not shown) [RI_57]: the “Aβ1-42 (% of control)” value with Aβ1-42 was 37.3 % of control. For the same molecule, in the experiment on Aβ1-40, the “Aβ1-40 (% of control)” value is reported as 49.1 % of control.
On the same counts, the results for `CC1=C(C(=O)Nc2ccccc2)C(c2cccs2)C(C#N)=C(SCC(=O)Nc2ccc(C)c(Cl)c2)N1` (stereo not shown) [ST050842, N-(3-chloro-4-methylphenyl)-2-[3-cyano-6-methyl-5-(N-phenylcarbamoyl)-4-(2-thienyl)(2-1,4-dihydropyridylthio)]acetamide] are 52.06 % of control and 37.46 % of control.
For the molecule `COC(=O)C1=C(C)NC2=C(C(=O)CC(c3ccc(OC)cc3)C2)C1c1cccc(OC)c1OC` (stereo not shown) [ST016999, methyl 4-(2,3-dimethoxyphenyl)-7-(4-methoxyphenyl)-2-methyl-5-oxo-1,4,6,7,8-pentahydroquinoline-3-carboxylate], the activity at 5 µM amounted to 82.8% with Aβ1-42 and 67.3% in the experiment with Aβ1-40.
In the case of `Cc1ccccc1/C=c1/sc2n(c1=O)C(N)=C(C#N)C(c1ccccc1C)C=2C#N` (stereo not shown) [ST003359, 5-amino-7-(2-methylphenyl)-2-[(2-methylphenyl)methylene]-3-oxo-4,7-dihydro-1,3-thiazolidino[3,2-a]pyridine-6,8-dicarbonitrile], in the experiment with Aβ1-42, the “Aβ1-42 (% of control)” value is 98.22 % of control. For the same molecule, in the experiment with Aβ1-40, the “Aβ1-40 (% of control)” value is given as 56.16 % of control.
